# Measured values published in publication PMC11079024, “Identification of a family of species-selective complex I inhibitors as potential anthelmintics” (Nature Communications, 2024).
# pIC50: −log10 of the molar value. Values joined by “and” are separate entries in the source; they are usually repeats but may differ in a detail not shown here. Equal values may be shown once. Read-outs that look alike come from different tables or passages of the source.
# Target: C. briggsae complex I (Caenorhabditis briggsae, UniProt A8X476+A8XFG2+Q8HEC4)
# Sequence (A8X476 31-482): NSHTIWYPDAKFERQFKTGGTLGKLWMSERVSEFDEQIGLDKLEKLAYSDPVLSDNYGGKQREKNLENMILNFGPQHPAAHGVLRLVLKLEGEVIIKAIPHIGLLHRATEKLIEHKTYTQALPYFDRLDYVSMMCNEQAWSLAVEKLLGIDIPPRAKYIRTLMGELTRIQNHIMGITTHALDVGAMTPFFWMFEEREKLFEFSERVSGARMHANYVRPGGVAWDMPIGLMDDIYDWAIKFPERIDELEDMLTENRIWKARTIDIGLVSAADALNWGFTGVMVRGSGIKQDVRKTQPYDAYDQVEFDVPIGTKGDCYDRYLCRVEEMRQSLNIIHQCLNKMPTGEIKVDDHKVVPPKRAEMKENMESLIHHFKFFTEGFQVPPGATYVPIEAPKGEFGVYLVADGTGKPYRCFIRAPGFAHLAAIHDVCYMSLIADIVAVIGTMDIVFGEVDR
# Sequence (A8XFG2 17-199): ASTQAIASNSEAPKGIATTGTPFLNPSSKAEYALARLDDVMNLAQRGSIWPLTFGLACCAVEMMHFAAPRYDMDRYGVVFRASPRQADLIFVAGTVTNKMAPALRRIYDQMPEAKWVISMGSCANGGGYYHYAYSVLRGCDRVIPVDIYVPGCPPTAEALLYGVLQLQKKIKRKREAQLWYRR
# Sequence (Q8HEC4 whole entry): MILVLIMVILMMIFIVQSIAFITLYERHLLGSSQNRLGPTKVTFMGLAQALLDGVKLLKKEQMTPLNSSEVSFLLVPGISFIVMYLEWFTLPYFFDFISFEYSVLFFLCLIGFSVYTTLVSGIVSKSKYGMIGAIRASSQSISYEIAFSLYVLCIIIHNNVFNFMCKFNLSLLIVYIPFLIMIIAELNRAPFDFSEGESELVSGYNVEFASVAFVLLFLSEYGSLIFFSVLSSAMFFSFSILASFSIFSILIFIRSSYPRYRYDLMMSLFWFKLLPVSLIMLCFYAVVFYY
# Experiment: In vitro complex I activity assay, C. briggsae mitochondria
# Format: biochemical
# Method: Mitochondria were isolated from the following free-living nematode strains: C. elegans—N2, CB3474, ECA882, ECA917, ECA1075, ECA1080; C. briggsae—AF16; P. pacificus—PS312; and P. hermaphrodita—B178. With the exception of the P. hermaphrodita strain B178, adult worms of each strain were grown in bulk through liquid culture to obtain mitochondria in sufficient quantities. Due to poor growth in liquid media, mixed stage populations of P. hermaphrodita were washed off and collected from NGM plates seeded with OP50. The isolation of mitochondria from all free-living nematode strains followed the protocol previously outlined in Burns et al.[24]. In brief, a 1 L saturated culture of E. coli HB101 was concentrated 20-fold in 50 mL complete S-medium. ~500,000 L1 worms synchronized from an embryo preparation performed the day prior were added to the S-media/HB101 suspension and grown to adulthood over the course of 3.5 days at 20 °C with shaking at 165 rpm. Following growth, worms were collected in 10 ×15 mL conical tubes and washed 7 times in M9 buffer. Worm suspensions were then combined into a single 15 mL conical tube and diluted to a final volume of 15 mL with M9 buffer. 1 mL aliquots of worm suspension were then distributed to 15 × 1.5 mL screw-cap microcentrifuge tubes and were pelleted at 500 g for 1 min. Excess M9 was aspirated without disturbing the worm pellet. 600 μL ice-cold isolate buffer A (250 mM sucrose, 10 mM Tris (pH 7.5), 1 mM EDTA, 1 mM PMSF (freshly prepared)) and 300 μL cold glass beads were then added to each tube. Tubes were incubated on ice for 10 min, and the worms were then lysed by bead beating (6 x 30 s, with 1 min cooling intervals). Tubes containing worm lysate were centrifuged at 1,000 g for 10 min at 4 °C and the supernatant was transferred to 15 new microcentrifuge tubes on ice. The tubes were centrifuged a second time at 1,000 g for 10 min at 4 °C and the supernatant was once again transferred to 15 new microcentrifuge tubes on ice. These tubes were then centrifuged at 16,000 g for 10 min at 4 °C. The resulting mitochondrial pellet was washed twice by re-suspension in 300 μL of ice-cold isolate buffer B (250 mM sucrose, 10 mM Tris (pH 7.5), 1 mM EDTA). Following the final wash, isolation buffer was aspirated from each tube and the pellets were flash-frozen in ethanol/dry ice and stored at −80 °C until needed.
# The enzymatic activities of individual ETC complexes (I-IV) were assessed spectrophotometrically in isolated mitochondria using a Varioskan LUX Multimode plate reader (ThermoFisher Scientific). Mitochondrial pellets previously isolated were thawed on ice and resuspended in ice-cold isolation buffer (250 mM sucrose, 10 mM Tris (pH 7.5), 1 mM EDTA). The BCA assay (Walker, 1994) was used to quantify the protein concentration of mitochondria suspensions; solutions were diluted to a concentration of 0.2 mg/mL for use in all assays. For the complex I assay, mitochondria pellets were freeze-thawed on ice three times to increase enzyme accessibility. […] 20 μL mitochondria suspension was then added/mixed with a pipette to initiate the reaction. Immediately following the addition of mitochondria, absorbance was measured (complex I and II: 600 nm; complex III and IV: 550 nm) in 30 s intervals over 15 min. Enzymatic activity was determined in each reaction by plotting absorbance versus time and calculating the slope of the curve during the initial linear phase of the reaction. […] Percent activity of each complex was calculated by dividing the enzyme-specific activity of each well by the enzyme-specific activity of the corresponding solvent controls.
# Chemical solutions were prepared in complex I assay buffer composed of 25 mM KPi buffer (pH 7.5), 3 mg/mL bovine serum albumin (BSA), 80 μM NADH, 60 μM decylubiquinone, 160 μM DCIP, 2 μM antimycin A and 2 mM KCN.
# For preliminary screens of hit compounds, compounds were screened at 100 μM; data are the average of at least three biological replicates.
compound,measurement,setting,value
Cc1nc2ccccc2n1Cc1ccc(Cl)cc1 [STK697993],remaining activity at 0.0001 µM,"C. briggsae mitochondria, 0.0001 µM, Mean, read-out: in vitro complex I activity relative to solvent control",84.5%
same,in vitro complex I activity relative to solvent control,"C. briggsae mitochondria, 0.0001 µM, single replicate",91.655% and 73.328%
same,remaining activity at 0.0001 µM,"C. briggsae mitochondria, 0.0001 µM, single replicate, read-out: in vitro complex I activity relative to solvent control",88.5%
same,remaining activity at 0.0005 µM,"C. briggsae mitochondria, 0.0005 µM, Mean, read-out: in vitro complex I activity relative to solvent control",92.6%
same,in vitro complex I activity relative to solvent control,"C. briggsae mitochondria, 0.0005 µM, single replicate",92.151% and 96.046%
same,remaining activity at 0.0005 µM,"C. briggsae mitochondria, 0.0005 µM, single replicate, read-out: in vitro complex I activity relative to solvent control",89.6%
same,remaining activity at 0.001 µM,"C. briggsae mitochondria, 0.001 µM, Mean, read-out: in vitro complex I activity relative to solvent control",98.3%
same,in vitro complex I activity relative to solvent control,"C. briggsae mitochondria, 0.001 µM, single replicate",98.678% and 90.340%
same,remaining activity at 0.001 µM,"C. briggsae mitochondria, 0.001 µM, single replicate, read-out: in vitro complex I activity relative to solvent control",106%
same,remaining activity at 0.0025 µM,"C. briggsae mitochondria, 0.0025 µM, Mean, read-out: in vitro complex I activity relative to solvent control",104%
same,in vitro complex I activity relative to solvent control,"C. briggsae mitochondria, 0.0025 µM, single replicate",101.880% and 103.212%
same,remaining activity at 0.0025 µM,"C. briggsae mitochondria, 0.0025 µM, single replicate, read-out: in vitro complex I activity relative to solvent control",106%
same,remaining activity at 0.005 µM,"C. briggsae mitochondria, 0.005 µM, Mean, read-out: in vitro complex I activity relative to solvent control",99.2%
same,in vitro complex I activity relative to solvent control,"C. briggsae mitochondria, 0.005 µM, single replicate",95.872% and 91.749%
same,remaining activity at 0.005 µM,"C. briggsae mitochondria, 0.005 µM, single replicate, read-out: in vitro complex I activity relative to solvent control",110%
same,remaining activity at 0.013 µM,"C. briggsae mitochondria, 0.013 µM, Mean, read-out: in vitro complex I activity relative to solvent control",91%
same,in vitro complex I activity relative to solvent control,"C. briggsae mitochondria, 0.013 µM, single replicate",83.705% and 87.377%
same,remaining activity at 0.013 µM,"C. briggsae mitochondria, 0.013 µM, single replicate, read-out: in vitro complex I activity relative to solvent control",102%
same,remaining activity at 0.025 µM,"C. briggsae mitochondria, 0.025 µM, Mean, read-out: in vitro complex I activity relative to solvent control",82.5%
same,in vitro complex I activity relative to solvent control,"C. briggsae mitochondria, 0.025 µM, single replicate",95.007% and 79.112% and 73.336%
same,remaining activity at 0.063 µM,"C. briggsae mitochondria, 0.063 µM, Mean, read-out: in vitro complex I activity relative to solvent control",54.5%
same,in vitro complex I activity relative to solvent control,"C. briggsae mitochondria, 0.063 µM, single replicate",60.174% and 66.771% and 36.409%
same,remaining activity at 0.125 µM,"C. briggsae mitochondria, 0.125 µM, Mean, read-out: in vitro complex I activity relative to solvent control",33.3%
same,in vitro complex I activity relative to solvent control,"C. briggsae mitochondria, 0.125 µM, single replicate",36.143% and 47.895% and 15.798%
same,remaining activity at 0.313 µM,"C. briggsae mitochondria, 0.313 µM, Mean, read-out: in vitro complex I activity relative to solvent control",12.2%
same,in vitro complex I activity relative to solvent control,"C. briggsae mitochondria, 0.313 µM, single replicate",16.180% and 20.382% and 0.000%
same,remaining activity at 0.625 µM,"C. briggsae mitochondria, 0.625 µM, Mean, read-out: in vitro complex I activity relative to solvent control",5.29%
same,in vitro complex I activity relative to solvent control,"C. briggsae mitochondria, 0.625 µM, single replicate",0.000% and 15.885%
same,remaining activity at 1.5 µM,"C. briggsae mitochondria, 1.5 µM, Mean, read-out: in vitro complex I activity relative to solvent control",3.62%
same,in vitro complex I activity relative to solvent control,"C. briggsae mitochondria, 1.5 µM, single replicate",0.000% and 10.874%
same,remaining activity at 3 µM,"C. briggsae mitochondria, 3 µM, Mean, read-out: in vitro complex I activity relative to solvent control",5.17%
same,in vitro complex I activity relative to solvent control,"C. briggsae mitochondria, 3 µM, single replicate",0.000% and 15.522%
same,remaining activity at 15 µM,"C. briggsae mitochondria, 15 µM, Mean, read-out: in vitro complex I activity relative to solvent control",7.49%
same,in vitro complex I activity relative to solvent control,"C. briggsae mitochondria, 15 µM, single replicate",0.019% and 20.437% and 1.999%
same,remaining activity at 37.5 µM,"C. briggsae mitochondria, 37.5 µM, Mean, read-out: in vitro complex I activity relative to solvent control",5.41%
same,in vitro complex I activity relative to solvent control,"C. briggsae mitochondria, 37.5 µM, single replicate",0.000% and 16.226%
same,remaining activity at 75 µM,"C. briggsae mitochondria, 75 µM, Mean, read-out: in vitro complex I activity relative to solvent control",4.07%
same,in vitro complex I activity relative to solvent control,"C. briggsae mitochondria, 75 µM, single replicate",3.330% and 6.641% and 2.225%
same,pIC50,purified mitochondria,7.13
